This passage reports Activity results from ChEMBL document CHEMBL1817638, “Ligand polarizability contributes to tau fibril binding affinity” (Bioorg Med Chem, 2011).

SMILES strings stand for the structures. Activity calls are given as the source filed them. The rule behind the calls is not given here.

Assay [1] can be described thus: Displacement of Thioflavin T from synthetic Tau 2N4R aggregate by fluorescence assay at 1 uM probe concentration.
Assay [2] is described as follows: Displacement of Thioflavin S from synthetic Tau 2N4R aggregate by fluorescence assay at 10 uM probe concentration.
Assay [3] in a line: Displacement of Thioflavin S from Octadecyl sulfate-induced synthetic Tau 2N4R aggregate by fluorescence assay.
Assay [4] is described as follows: Displacement of Thioflavin S from arachidonic acid-induced synthetic Tau 2N4R aggregate by fluorescence assay.
Assay [5] can be described thus: Displacement of Thioflavin S from heparin-induced synthetic Tau 2N4R aggregate by fluorescence assay.
Assay [6] addresses Microtubule-associated protein tau (Homo sapiens) (UniProt P10636). As to the kind of experiment: Displacement of Thioflavin T from Octadecyl sulfate-induced synthetic Tau 0N4R aggregate at 17 pm to 10 uM by fluorescence assay at 0.1 uM probe concentration.
For assay [7] the target is unchanged. As to the kind of experiment: Displacement of Thioflavin T from Octadecyl sulfate-induced synthetic Tau 0N4R aggregate at 17 pm to 10 uM by fluorescence assay at increasing probe concentration.
For assay [8] the target is unchanged. As to the kind of experiment: Displacement of Thioflavin S from recombinant human PHF-tau expressed in Escherichia coli by fluorescence assay.
Assay [9] can be described thus: Displacement of Thioflavin S from synthetic Tau 2N4R aggregate by fluorescence assay.

Chain of Microtubule-associated protein tau (Homo sapiens) (P10636 whole entry): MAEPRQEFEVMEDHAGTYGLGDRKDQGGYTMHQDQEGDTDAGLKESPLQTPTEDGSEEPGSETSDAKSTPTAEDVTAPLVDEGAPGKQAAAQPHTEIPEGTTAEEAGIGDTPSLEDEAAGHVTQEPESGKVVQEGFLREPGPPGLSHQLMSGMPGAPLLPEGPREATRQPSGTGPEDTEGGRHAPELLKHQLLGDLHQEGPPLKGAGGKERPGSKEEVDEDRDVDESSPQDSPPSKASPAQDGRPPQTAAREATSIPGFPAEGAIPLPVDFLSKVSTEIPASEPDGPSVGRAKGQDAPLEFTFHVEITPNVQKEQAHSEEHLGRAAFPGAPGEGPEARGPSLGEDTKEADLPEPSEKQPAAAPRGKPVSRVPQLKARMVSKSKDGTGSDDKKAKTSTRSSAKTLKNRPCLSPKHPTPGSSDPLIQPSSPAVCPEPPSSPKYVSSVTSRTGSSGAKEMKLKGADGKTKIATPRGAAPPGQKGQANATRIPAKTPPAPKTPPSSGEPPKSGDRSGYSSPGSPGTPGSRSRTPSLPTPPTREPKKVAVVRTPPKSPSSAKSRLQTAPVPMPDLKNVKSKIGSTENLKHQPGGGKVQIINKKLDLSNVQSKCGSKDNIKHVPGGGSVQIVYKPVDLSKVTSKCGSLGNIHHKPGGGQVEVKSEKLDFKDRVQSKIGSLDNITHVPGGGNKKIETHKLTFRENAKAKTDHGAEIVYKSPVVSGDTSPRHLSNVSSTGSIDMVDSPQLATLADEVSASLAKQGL

Regarding `O=C1C=CC(=C(c2ccc(O)cc2)c2ccc(O)cc2)C=C1`, the outcome in assay [1] and in assay [2] was Active.

Regarding `CN(C)c1ccc(C(=C2C=CC(=[N+](C)C)C=C2)c2ccc(N(C)C)cc2)cc1`, the outcome in assay [1] and in assay [2] was Active.

As to `CN(C)c1ccc(C(=C2C=CC(=[N+](C)C)C=C2)c2ccccc2)cc1`, the result in assay [1] and in [2] was Active.

Regarding `Nc1ccc2nc3ccc(N)cc3[s+]c2c1`, in [1], the outcome was Active. The outcome in assay [2] was inactive.

As for `COc1ccc2nc(/N=N/c3ccc(N(C)C)cc3)sc2c1`, the outcome in assay [3], in [4] and in [5] was Active.

As for `C/N=c1\ccc2nc3ccc(N)cc3sc-2c1`, the result in [3], in assay [4], in [5] and in assay [1] was Active. The outcome in assay [2] was inactive.

With `CNc1ccc2nc3ccc(N(C)C)cc3[s+]c2c1`, the outcome in [1] was Active. For the same molecule, the result in [2] was inactive.

In the case of `CN(C)c1ccc2nc3ccc(N)cc3[s+]c2c1`, the result in assay [1] was Active. The outcome in assay [2] was inactive.

On to `CN(C)c1ccc(/C=C2/C(=O)Nc3ccccc32)cc1`, for which the result in [6] and in assay [7] was Active.

As for `N=C1C=CC(=C(c2ccc(N)cc2)c2ccc(N)cc2)C=C1`, the result in assay [1] and in assay [2] was Active.

Turning to `Cc1cc2nc3ccc(N(C)C)cc3[s+]c2cc1N`, the outcome in [1] was Active. Moreover, the outcome in [2] was inactive.

Consider `CN(C)c1ccc2nc3ccc(=[N+](C)C)cc-3sc2c1`, for which the result in [3], in [4], in [5] and in assay [1] was Active. Also, the outcome in assay [2] was inactive.

Consider `CN(C)c1ccc(/C=C2\C(=O)Nc3ccc(I)cc32)cc1`, for which the outcome in assay [8], in assay [9], in [3], in assay [4] and in assay [5] was Active.

As for `CN(C)c1ccc(-c2nc3ccccc3s2)cc1`, in assay [6], the result was Active. In addition, the result in assay [7] was inactive.

On to `O=C(O)c1cc(/N=N/c2ccc(-c3ccc(/N=N/c4ccc(O)c(C(=O)O)c4)cc3)cc2)ccc1O`, for which the result in assay [3], in assay [4] and in assay [5] was Active.
